Results reported in patent US7786141B2 (Vertex Pharmaceuticals Incorporated, priority 2004, dated 2010).

Columns and labels:
M1 muscarinic receptor = target: T1, M1 muscarinic receptor (Homo sapiens, UniProt P11229); assay: Functional mobilization of intracellular calcium (FLIPR) in M1-CHO cells; type: cell-based; conditions: Table 4; for Emax: 100% efficacy is the maximum response obtained with the Carbachol control; for M1 Activity: modulating M1 receptor
T1 construct: expressed in transfected cells; host or cells: CHO (M1-CHO)
T1 sequence (P11229 1-460): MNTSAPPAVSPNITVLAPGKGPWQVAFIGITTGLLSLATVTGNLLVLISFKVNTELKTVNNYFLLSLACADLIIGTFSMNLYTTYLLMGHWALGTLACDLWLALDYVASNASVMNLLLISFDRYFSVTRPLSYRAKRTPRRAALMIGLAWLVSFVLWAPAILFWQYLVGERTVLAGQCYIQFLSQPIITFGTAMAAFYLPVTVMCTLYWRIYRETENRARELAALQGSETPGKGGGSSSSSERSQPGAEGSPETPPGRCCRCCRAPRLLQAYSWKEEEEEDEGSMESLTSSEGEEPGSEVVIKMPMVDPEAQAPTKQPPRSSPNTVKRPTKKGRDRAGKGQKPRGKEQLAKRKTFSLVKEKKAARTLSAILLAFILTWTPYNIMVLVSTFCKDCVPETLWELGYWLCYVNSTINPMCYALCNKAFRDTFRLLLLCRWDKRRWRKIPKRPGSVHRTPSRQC
Summary of the method: (§1)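 Two modes: direct compound addition for agonism, or 15 min compound pre-incubation (or co-application) before carbachol at EC80 for inhibition. Calcium signal from Fluo-3 AM or Calcium 3 dye in CHO cells, 1 mM probenecid, pH 7.4, read 60 sec at 488/540 nm; DMSO 0.5% final.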

M4 muscarinic receptor = target: T2, M4 muscarinic receptor (Homo sapiens, UniProt P08173); assay: Functional mobilization of intracellular calcium (FLIPR) in M4-CHO cells; type: cell-based; conditions: Table 4; for Emax: 100% efficacy is the maximum response obtained with the Carbachol control; for M4 Activity: modulating M4 receptor
T2 construct: expressed in transfected cells; host or cells: CHO (M4-CHO)
T2 sequence (P08173 1-479): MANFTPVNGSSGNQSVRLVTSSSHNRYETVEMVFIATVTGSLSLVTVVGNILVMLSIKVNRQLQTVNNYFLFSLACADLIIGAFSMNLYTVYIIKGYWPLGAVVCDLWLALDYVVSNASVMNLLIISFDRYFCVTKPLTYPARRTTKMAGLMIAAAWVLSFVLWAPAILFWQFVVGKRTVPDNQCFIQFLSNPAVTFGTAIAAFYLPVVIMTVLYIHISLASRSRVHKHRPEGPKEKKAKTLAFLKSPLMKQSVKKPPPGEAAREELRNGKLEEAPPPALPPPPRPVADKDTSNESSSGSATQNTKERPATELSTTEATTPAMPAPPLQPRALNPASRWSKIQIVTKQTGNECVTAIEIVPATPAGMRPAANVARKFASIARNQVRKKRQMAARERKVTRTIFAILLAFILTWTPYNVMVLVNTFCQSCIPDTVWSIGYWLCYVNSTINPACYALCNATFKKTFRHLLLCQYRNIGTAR
Summary of the method: as §1

CN(C)C(=O)N1CC2(CCN(C[C@H]3CCN(C(=O)OCC4CC4)C3)CC2)c2cc(F)ccc21 [compound 651]
Emax (M1 muscarinic receptor): 25 to 100%
M1 Activity (M1 muscarinic receptor): xxx (activity was measured to be less than 2.0 μM)
Emax (M4 muscarinic receptor): 25 to 100%
M4 Activity (M4 muscarinic receptor): xxx (activity was measured to be less than 2.0 μM)

CC(=O)N[C@H]1CCC2(CCN(C[C@H]3C[C@H]4C=CC3C4)CC2)c2ccccc21 [compound 652]
Emax (M1 muscarinic receptor): 25 to 100%
M1 Activity (M1 muscarinic receptor): xxx (activity was measured to be less than 2.0 μM)
Emax (M4 muscarinic receptor): 25 to 100%
M4 Activity (M4 muscarinic receptor): xxx (activity was measured to be less than 2.0 μM)

CCOC(=O)N1CCC(N2CCC3(CC2)CN(C(C)=O)c2c(-c4ccc(C(F)(F)F)cc4)cccc23)CC1 [compound 653]
Emax (M1 muscarinic receptor): 25 to 100%
M1 Activity (M1 muscarinic receptor): x (activity was measured to be greater than 5.0 μM)
Emax (M4 muscarinic receptor): 25 to 100%
M4 Activity (M4 muscarinic receptor): x (activity was measured to be greater than 5.0 μM)

CC(=O)N[C@H]1CCC2(CCN(CC3CC4CCC3C4)CC2)c2ccccc21 (stereo partly shown) [compound 655]
Emax (M1 muscarinic receptor): 25 to 100%
M1 Activity (M1 muscarinic receptor): xxx (activity was measured to be less than 2.0 μM)
Emax (M4 muscarinic receptor): 25 to 100%
M4 Activity (M4 muscarinic receptor): xxx (activity was measured to be less than 2.0 μM)

CCC#CCOC(=O)N1CCC(N2CCC3(CC2)CN(C(C)=O)c2ccccc23)CC1 [compound 656]
Emax (M1 muscarinic receptor): 25 to 100%
M1 Activity (M1 muscarinic receptor): xxx (activity was measured to be less than 2.0 μM)
Emax (M4 muscarinic receptor): 25 to 100%
M4 Activity (M4 muscarinic receptor): xxx (activity was measured to be less than 2.0 μM)

c1ccc2c(c1)CCCC21CCN(C2C[C@@H]3CC[C@@H](C2)C3)CC1 (stereo partly shown) [compound 657]
Emax (M1 muscarinic receptor): 25 to 100%
M1 Activity (M1 muscarinic receptor): xx (activity was measured to be between 2.0 μM and 5.0 μM)
Emax (M4 muscarinic receptor): 25 to 100%
M4 Activity (M4 muscarinic receptor): xxx (activity was measured to be less than 2.0 μM)

COCCOC(=O)N1CCC(N2CCC3(CC2)CN(CCOC)c2ccc(F)cc23)CC1 [compound 658]
Emax (M1 muscarinic receptor): 25 to 100%
M1 Activity (M1 muscarinic receptor): xxx (activity was measured to be less than 2.0 μM)
Emax (M4 muscarinic receptor): 25 to 100%
M4 Activity (M4 muscarinic receptor): xxx (activity was measured to be less than 2.0 μM)

Cc1cnc(C)c(N2CCC(N3CCC4(CC3)CN(C(=O)N(C)C)c3ccc(F)cc34)CC2)n1 [compound 659]
Emax (M1 muscarinic receptor): 25 to 100%
M1 Activity (M1 muscarinic receptor): xxx (activity was measured to be less than 2.0 μM)
Emax (M4 muscarinic receptor): 25 to 100%
M4 Activity (M4 muscarinic receptor): xxx (activity was measured to be less than 2.0 μM)

CN(C)C(=O)N1CC2(CCN(C[C@H]3CCN(c4cnccn4)C3)CC2)c2cc(F)ccc21 [compound 660]
Emax (M1 muscarinic receptor): > 100%
M1 Activity (M1 muscarinic receptor): xxx (activity was measured to be less than 2.0 μM)
Emax (M4 muscarinic receptor): > 100%
M4 Activity (M4 muscarinic receptor): xxx (activity was measured to be less than 2.0 μM)

CCOC(=O)N1CCC(N2CCC3(CC2)CN(C(C)=O)c2c(-c4ccccc4F)cccc23)CC1 [compound 661]
Emax (M1 muscarinic receptor): 25 to 100%
M1 Activity (M1 muscarinic receptor): x (activity was measured to be greater than 5.0 μM)
Emax (M4 muscarinic receptor): < 25%
M4 Activity (M4 muscarinic receptor): x (activity was measured to be greater than 5.0 μM)

C[C@H](O)CC(=O)N1CCC(N2CCC3(CC2)CN(C(=O)N(C)C)c2ccc(F)cc23)CC1 [compound 662]
Emax (M1 muscarinic receptor): 25 to 100%
M1 Activity (M1 muscarinic receptor): x (activity was measured to be greater than 5.0 μM)
Emax (M4 muscarinic receptor): 25 to 100%
M4 Activity (M4 muscarinic receptor): xx (activity was measured to be between 2.0 μM and 5.0 μM)

O=C(N[C@H]1CCC2(CCN(C3CCCCCC3)CC2)c2ccccc21)C1CC1 [compound 663]
Emax (M1 muscarinic receptor): 25 to 100%
M1 Activity (M1 muscarinic receptor): xxx (activity was measured to be less than 2.0 μM)
Emax (M4 muscarinic receptor): 25 to 100%
M4 Activity (M4 muscarinic receptor): xxx (activity was measured to be less than 2.0 μM)

CCOC(=O)N1C2CCC1CC(N1CCC3(CC[C@H](NC(=O)C4CC4)c4ccccc43)CC1)C2 (stereo partly shown) [compound 664]
Emax (M1 muscarinic receptor): 25 to 100%
M1 Activity (M1 muscarinic receptor): xxx (activity was measured to be less than 2.0 μM)
Emax (M4 muscarinic receptor): 25 to 100%
M4 Activity (M4 muscarinic receptor): xxx (activity was measured to be less than 2.0 μM)
